The text below walks through data of PMC4088988 (Bioorganic & medicinal chemistry, 2013).

Structures are written as SMILES. “Also recorded” adds a separate entry of the source.

Data set [1] concerns glucocorticoid response element (GRE). Put plainly: Transactivation assay, GRE-luciferase reporter in HEK-293 cells. In kind it is cell-based. The following applies: HEK-293 GRE-luciferase, 0.01 to 100 μg/ml, 6 h.
The subject of a further data set is NF-κB. The format is cell-based. As to conditions: C2C12 myoblasts and myotubes, Fig. 2/3.
Another data set has as its system CYP1A2. Put plainly: CYP1A2 induction in human hepatocytes. In kind it is in vitro ADME. As to conditions: three human hepatocyte donors, 1, 10, 100 μM, relative to omeprazole.
The target in the next data set is T1, GR (Homo sapiens, UniProt P04150).
T1 sequence (P04150 1-777): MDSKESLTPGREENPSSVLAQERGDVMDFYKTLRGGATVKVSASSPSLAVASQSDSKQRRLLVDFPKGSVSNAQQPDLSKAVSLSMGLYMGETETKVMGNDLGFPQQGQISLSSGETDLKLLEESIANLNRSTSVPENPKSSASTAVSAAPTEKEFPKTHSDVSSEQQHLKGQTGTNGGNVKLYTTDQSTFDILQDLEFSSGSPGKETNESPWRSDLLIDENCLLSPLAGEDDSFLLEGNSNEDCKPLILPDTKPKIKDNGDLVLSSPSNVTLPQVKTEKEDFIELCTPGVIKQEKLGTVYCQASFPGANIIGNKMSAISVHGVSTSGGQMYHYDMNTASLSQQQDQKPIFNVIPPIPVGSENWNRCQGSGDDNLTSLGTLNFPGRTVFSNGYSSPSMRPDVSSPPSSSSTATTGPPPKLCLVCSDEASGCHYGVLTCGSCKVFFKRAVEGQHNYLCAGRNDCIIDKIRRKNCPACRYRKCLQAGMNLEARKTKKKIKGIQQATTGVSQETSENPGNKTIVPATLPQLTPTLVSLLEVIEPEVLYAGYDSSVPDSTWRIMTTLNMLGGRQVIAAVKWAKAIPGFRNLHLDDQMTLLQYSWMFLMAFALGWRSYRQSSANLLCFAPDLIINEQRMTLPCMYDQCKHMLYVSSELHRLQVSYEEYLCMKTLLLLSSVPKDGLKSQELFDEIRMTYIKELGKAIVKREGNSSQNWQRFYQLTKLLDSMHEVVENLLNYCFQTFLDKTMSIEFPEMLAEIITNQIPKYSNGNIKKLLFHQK
In words: GR Nuclear Translocation PathHunter assay. The following applies: for GR translocation activity: Fig. 3; for Rank GR translocation: rank among tested compounds. In kind it is cell-based.

Data set [2] in a line: Pharmacokinetics in beagle dogs, IV and PO. The format is in vivo.
Data set [3] in a line: Metabolite identification in rat hepatocytes. The format is in vitro ADME. As to conditions: 10 μM, 2 and 4 h.
Another data set can be described thus: Ames test. As to conditions: Positive/negative.
A short description of data set [4]: Pharmacokinetics in CD1 mice, IV and PO. As to conditions: for AUC0, total, unbound / Cmax, total, unbound: Table 4. The format is in vivo.
Another data set in a line: Micronucleus test. As to conditions: Positive/negative.
Data set [5] can be described thus: Pharmacokinetics in Sprague–Dawley rats, IV and PO. In kind it is in vivo.
Data set [6] in a line: Metabolite identification in monkey hepatocytes. The format is in vitro ADME. The following applies: 10 μM, 2 and 4 h.
The nature of data set [7]: Metabolic stability in rat liver microsomes. The format is in vitro ADME. The following applies: 60 min, NADPH.
Data set [8] is described as follows: Metabolite identification in dog hepatocytes. The following applies: 10 μM, 2 and 4 h. The format is in vitro ADME.
Data set [9] in a line: Metabolite identification in human hepatocytes. The format is in vitro ADME. As to conditions: 10 μM, 2 and 4 h.
The next data set has as its system CYP3A4. Put plainly: CYP3A4 induction in human hepatocytes. In kind it is in vitro ADME. As to conditions: three human hepatocyte donors, 1, 10, 100 μM, % of positive control rifampin.
Data set [10] deals with mineralocorticoid receptor (MR). As to conditions: cited from earlier work.
For data set [11], the system named is glucocorticoid receptor (GR). The following applies: cited from earlier work.
The conditions of data set [12]: single administration, cited from earlier work.
Where [13] appears, read: CD1 mice, IV 10 mg/kg, 10 mg/kg.

`C[C@]12C=CC(=O)C=C1CC[C@@H]1[C@@H]2[C@@H](O)C[C@@]2(C)[C@H]1CC[C@]2(O)C(=O)CO` [prednisolone, reference compound]: the “GRE-dependent gene transcription (luciferase)” value in data set [1] is “significant dose-dependent response”.

`C[C@@H]1C[C@H]2[C@@H]3CCC4=CC(=O)C=C[C@]4(C)C3=CC[C@]2(C)[C@@]1(O)C(=O)CO` [VBP15]: in the data set on NF-κB, the “NF-κB inhibition activity” value is recorded as “high activities”. In addition, in the data set on CYP1A2, the CYP1A2 induction result is on record as “no induction”. Further, the “GRE-dependent gene transcription (luciferase)” value in data set [1] is given as “lack of transactivation properties; also recorded: lacks GRE-mediated transcriptional activity”. The “GR translocation activity” value on GR is “high activities”. Also, the “AUC0, total, unbound” value in data set [2] (Dog 10 mpk IV) is recorded as 6791 (IV) h ng/mL; in data set [2] (Dog 30 mpk PO) it was 10844 (PO) h ng/mL; in data set [4] (Mouse 10 mpk IV) it was 8842 (IV) h ng/mL; in [4] (Mouse 50 mpk PO), 32932 (PO) h ng/mL; in [5] (Rat 10 mpk IV) it was 8339 (IV) h ng/mL; in data set [5] (Rat 50 mpk PO) it was 19937 (PO) h ng/mL. The “Cmax, total, unbound” value is listed as 814 (PO) ng/mL in data set [2] (Dog 30 mpk PO, 30 mg/kg); 11167 (IV) ng/mL in data set [4] (Mouse 10 mpk IV); 6787 (PO) ng/mL in [4] (Mouse 50 mpk PO, 50 mg/kg); 2543 (PO) ng/mL in data set [5] (Rat 50 mpk PO, 50 mg/kg). Moreover, the “number of metabolites identified” value in data set [3] is on record as 5; in data set [6] it was “Four”; in data set [8], 3; in data set [9] it was “Four”. For the same compound, in “Ames test”, the Ames test entry is “Negative”. For the same compound, the Clobs in data set [4] (setting [13]) is reported as 18.8 (IV) mL/min/kg. In [4] (setting [13]), the Vssobs is 0.757 (IV) L/kg. In addition, the Micronucleus test result in “Micronucleus test” was “Negative”. Further, the “Stability–microsomes, remaining at 1 h” value in data set [7] is on record as “Rat = 35.4%”. Besides, in the data set on CYP3A4, the CYP3A4 induction is 24–42%.

Consider `CC(=O)OCC(=O)[C@@]1(O)CC[C@@H]2[C@H]3CCC4=CC(=O)CC[C@]4(C)C3=CC[C@@]21C` [anecortave acetate, [2-[(8R,10S,13S,14R,17R)-17-hydroxy-10,13-dimethyl-3-oxo-2,6,7,8,12,14,15,16-octahydro-1H-cyclopenta[a]phenanthren-17-yl]-2-oxo-ethyl] acetate, reference compound], for which the “binding to the MR” value in data set [10] is listed as “relatively high affinity binding”. Also, the “binding to the GR” value in data set [11] is “relatively high affinity binding”. The “reduction in IOP” value in data set [12] (best dose) was 31%. The “mean duration of IOP benefit” value in data set [12] is listed as 56 days.

As to `C[C@@H]1C[C@H]2[C@@H]3CCC4=CC(=O)C=C[C@]4(C)C3=CC[C@]2(C)[C@H]1C(=O)CO` [VBP6], in the data set on NF-κB, the “NF-κB inhibition activity” value is listed as “high activities”. At GR, the “GR translocation activity” value is reported as “high activities” and the “Rank GR translocation” value was 4. In addition, the AUC/D in data set [4] (CD1 mice, IV 10 mg/kg) is 345 ng·h/mL. Also, the AUC/D in data set [4] (CD1 mice, PO 50 mg/kg, 30% Labrafil) stood at 440 ng·h/mL.

With `CC(=O)OCC(=O)[C@H]1[C@H](C)C[C@H]2[C@@H]3CCC4=CC(=O)C=C[C@]4(C)C3=CC[C@@]21C` [VBP7], in the data set with NF-κB, the “NF-κB inhibition activity” value is on record as “high activities”. At GR, the “GR translocation activity” value is on record as “high activities” and the “Rank GR translocation” value is recorded as 7.

Consider `C[C@]12C=CC(=O)C=C1CC[C@@H]1[C@@H]2C(=O)C[C@@]2(C)[C@H]1CC[C@]2(O)C(=O)CO` [Prednisone, reference compound], for which the “GRE-dependent gene transcription (luciferase)” value in data set [1] was “induced luciferase expression”.

Turning to `C[C@]12CCC(=O)C=C1CC[C@@H]1C2=CC[C@@]2(C)[C@H]1CC[C@]2(O)C(=O)CO` [VBP1], in data set [10], the “binding to the MR” value is on record as “relatively high affinity binding”. For the same compound, the “Rank GR translocation” value on GR turned out to be 6. In addition, in data set [11], the “binding to the GR” value is “relatively high affinity binding”.
